Laboratory results published in ChEMBL document CHEMBL3046681, “Synthesis and insecticidal evaluation of propesticides of benzoylphenylureas” (2005).

Legend:
Type in all cases: functional
Mythimna separata [1] = experiment: Insecticidal activity against fourth instar larvae of Mythimna separata (Oriental armyworm) in compound treated corn leaves assessed as mortality at 1 mg/kg by foliar application
Mythimna separata [2] = experiment: Insecticidal activity against fourth instar larvae of Mythimna separata (Oriental armyworm) in compound treated corn leaves assessed as mortality at 50 mg/kg by foliar application
Mythimna separata [3] = experiment: Insecticidal activity against fourth instar larvae of Mythimna separata (Oriental armyworm) in compound treated corn leaves assessed as mortality at 500 mg/kg by foliar application
Mythimna separata [4] = experiment: Insecticidal activity against fourth instar larvae of Mythimna separata (Oriental armyworm) in compound treated corn leaves assessed as mortality at 0.5 mg/kg by foliar application
Mythimna separata [5] = experiment: Insecticidal activity against fourth instar larvae of Mythimna separata (Oriental armyworm) in compound treated corn leaves assessed as mortality at 25 mg/kg by foliar application
Mythimna separata [6] = experiment: Insecticidal activity against fourth instar larvae of Mythimna separata (Oriental armyworm) in compound treated corn leaves assessed as mortality at 100 mg/kg by foliar application
Mythimna separata [7] = experiment: Insecticidal activity against fourth instar larvae of Mythimna separata (Oriental armyworm) in compound treated corn leaves assessed as mortality at 5 mg/kg by foliar application
Mythimna separata [8] = experiment: Insecticidal activity against fourth instar larvae of Mythimna separata (Oriental armyworm) in compound treated corn leaves assessed as mortality at 10 mg/kg by foliar application
Mythimna separata [9] = experiment: Insecticidal activity against fourth instar larvae of Mythimna separata (Oriental armyworm) in compound treated corn leaves assessed as mortality at 0.2 mg/kg by foliar application
Mythimna separata [10] = experiment: Insecticidal activity against fourth instar larvae of Mythimna separata (Oriental armyworm) in compound treated corn leaves assessed as mortality at 200 mg/kg by foliar application
Mythimna separata [11] = experiment: Insecticidal activity against fourth instar larvae of Mythimna separata (Oriental armyworm) in compound treated corn leaves assessed as mortality at 0.1 mg/kg by foliar application

CC(C)(C)OC(=O)N(C(=O)NC(=O)c1c(F)cccc1F)c1ccc(C(F)(F)F)cc1
100%: mortality at 50 mg/kg (Mythimna separata [2]) | mortality at 500 mg/kg (Mythimna separata [3]) | mortality at 25 mg/kg (Mythimna separata [5]) | mortality at 100 mg/kg (Mythimna separata [6]) | mortality at 10 mg/kg (Mythimna separata [8]) | mortality at 200 mg/kg (Mythimna separata [10])
75%: mortality at 5 mg/kg (Mythimna separata [7])
0%: mortality at 1 mg/kg (Mythimna separata [1]) | mortality at 0.5 mg/kg (Mythimna separata [4]) | mortality at 0.2 mg/kg (Mythimna separata [9])

O=C(NC(=O)c1c(F)cccc1F)Nc1ccc(Cl)cc1 [DIFLUBENZURON]
45%: mortality at 0.2 mg/kg (Mythimna separata [9])
100%: mortality at 1 mg/kg (Mythimna separata [1]) | mortality at 50 mg/kg (Mythimna separata [2]) | mortality at 500 mg/kg (Mythimna separata [3]) | mortality at 0.5 mg/kg (Mythimna separata [4]) | mortality at 25 mg/kg (Mythimna separata [5]) | mortality at 100 mg/kg (Mythimna separata [6]) | mortality at 5 mg/kg (Mythimna separata [7]) | mortality at 10 mg/kg (Mythimna separata [8]) | mortality at 200 mg/kg (Mythimna separata [10])
0%: mortality at 0.1 mg/kg (Mythimna separata [11])

O=C(NC(=O)N(C(=O)OCc1ccccc1)c1ccc(Cl)cc1)c1c(F)cccc1F
100%: mortality at 500 mg/kg (Mythimna separata [3]) | mortality at 200 mg/kg (Mythimna separata [10])
70%: mortality at 100 mg/kg (Mythimna separata [6])
0%: mortality at 1 mg/kg (Mythimna separata [1]) | mortality at 50 mg/kg (Mythimna separata [2]) | mortality at 0.5 mg/kg (Mythimna separata [4]) | mortality at 25 mg/kg (Mythimna separata [5]) | mortality at 5 mg/kg (Mythimna separata [7]) | mortality at 10 mg/kg (Mythimna separata [8]) | mortality at 0.2 mg/kg (Mythimna separata [9])

CCOC(=O)N(C)SN(C(=O)NC(=O)c1c(F)cccc1F)c1ccc(C(F)(F)F)cc1
95%: mortality at 0.5 mg/kg (Mythimna separata [4])
0%: mortality at 0.1 mg/kg (Mythimna separata [11])
100%: mortality at 1 mg/kg (Mythimna separata [1]) | mortality at 50 mg/kg (Mythimna separata [2]) | mortality at 500 mg/kg (Mythimna separata [3]) | mortality at 25 mg/kg (Mythimna separata [5]) | mortality at 100 mg/kg (Mythimna separata [6]) | mortality at 5 mg/kg (Mythimna separata [7]) | mortality at 10 mg/kg (Mythimna separata [8]) | mortality at 200 mg/kg (Mythimna separata [10])
85%: mortality at 0.2 mg/kg (Mythimna separata [9])

CC(C)(C)OC(=O)N(C(=O)NC(=O)c1c(F)cccc1F)c1ccc(Cl)cc1
5%: mortality at 1 mg/kg (Mythimna separata [1])
0%: mortality at 0.5 mg/kg (Mythimna separata [4]) | mortality at 0.2 mg/kg (Mythimna separata [9])
100%: mortality at 50 mg/kg (Mythimna separata [2]) | mortality at 500 mg/kg (Mythimna separata [3]) | mortality at 25 mg/kg (Mythimna separata [5]) | mortality at 100 mg/kg (Mythimna separata [6]) | mortality at 10 mg/kg (Mythimna separata [8]) | mortality at 200 mg/kg (Mythimna separata [10])
95%: mortality at 5 mg/kg (Mythimna separata [7])

CCOC(=O)N(C(=O)NC(=O)c1c(F)cccc1F)c1ccc(C(F)(F)F)cc1
5%: mortality at 25 mg/kg (Mythimna separata [5])
0%: mortality at 1 mg/kg (Mythimna separata [1]) | mortality at 0.5 mg/kg (Mythimna separata [4]) | mortality at 5 mg/kg (Mythimna separata [7]) | mortality at 10 mg/kg (Mythimna separata [8]) | mortality at 0.2 mg/kg (Mythimna separata [9])
100%: mortality at 50 mg/kg (Mythimna separata [2]) | mortality at 500 mg/kg (Mythimna separata [3]) | mortality at 100 mg/kg (Mythimna separata [6]) | mortality at 200 mg/kg (Mythimna separata [10])

O=C(NC(=O)N(C(=O)OCc1ccccc1)c1ccc(C(F)(F)F)cc1)c1c(F)cccc1F
100%: mortality at 500 mg/kg (Mythimna separata [3])
0%: mortality at 1 mg/kg (Mythimna separata [1]) | mortality at 50 mg/kg (Mythimna separata [2]) | mortality at 0.5 mg/kg (Mythimna separata [4]) | mortality at 25 mg/kg (Mythimna separata [5]) | mortality at 100 mg/kg (Mythimna separata [6]) | mortality at 5 mg/kg (Mythimna separata [7]) | mortality at 10 mg/kg (Mythimna separata [8]) | mortality at 0.2 mg/kg (Mythimna separata [9])
30%: mortality at 200 mg/kg (Mythimna separata [10])

CCOC(=O)N(C)SN(C(=O)NC(=O)c1c(F)cccc1F)c1ccc(Cl)cc1
0%: mortality at 0.1 mg/kg (Mythimna separata [11])
5%: mortality at 0.2 mg/kg (Mythimna separata [9])
20%: mortality at 1 mg/kg (Mythimna separata [1])
100%: mortality at 50 mg/kg (Mythimna separata [2]) | mortality at 500 mg/kg (Mythimna separata [3]) | mortality at 25 mg/kg (Mythimna separata [5]) | mortality at 100 mg/kg (Mythimna separata [6]) | mortality at 5 mg/kg (Mythimna separata [7]) | mortality at 10 mg/kg (Mythimna separata [8]) | mortality at 200 mg/kg (Mythimna separata [10])

CN(SN(C(=O)NC(=O)c1c(F)cccc1F)c1ccc(Cl)cc1)C(=O)OCc1ccccc1
0%: mortality at 0.1 mg/kg (Mythimna separata [11]) | mortality at 0.2 mg/kg (Mythimna separata [9])
100%: mortality at 50 mg/kg (Mythimna separata [2]) | mortality at 500 mg/kg (Mythimna separata [3]) | mortality at 25 mg/kg (Mythimna separata [5]) | mortality at 100 mg/kg (Mythimna separata [6]) | mortality at 5 mg/kg (Mythimna separata [7]) | mortality at 10 mg/kg (Mythimna separata [8]) | mortality at 200 mg/kg (Mythimna separata [10])
55%: mortality at 0.5 mg/kg (Mythimna separata [4])
85%: mortality at 1 mg/kg (Mythimna separata [1])

CCOC(=O)N(C(=O)NC(=O)c1c(F)cccc1F)c1ccc(Cl)cc1
0%: mortality at 1 mg/kg (Mythimna separata [1]) | mortality at 0.5 mg/kg (Mythimna separata [4]) | mortality at 5 mg/kg (Mythimna separata [7]) | mortality at 10 mg/kg (Mythimna separata [8]) | mortality at 0.2 mg/kg (Mythimna separata [9])
100%: mortality at 50 mg/kg (Mythimna separata [2]) | mortality at 500 mg/kg (Mythimna separata [3]) | mortality at 25 mg/kg (Mythimna separata [5]) | mortality at 100 mg/kg (Mythimna separata [6]) | mortality at 200 mg/kg (Mythimna separata [10])

CN(SN(C(=O)NC(=O)c1c(F)cccc1F)c1ccc(C(F)(F)F)cc1)C(=O)OC(C)(C)C
100%: mortality at 1 mg/kg (Mythimna separata [1]) | mortality at 50 mg/kg (Mythimna separata [2]) | mortality at 500 mg/kg (Mythimna separata [3]) | mortality at 0.5 mg/kg (Mythimna separata [4]) | mortality at 25 mg/kg (Mythimna separata [5]) | mortality at 100 mg/kg (Mythimna separata [6]) | mortality at 5 mg/kg (Mythimna separata [7]) | mortality at 10 mg/kg (Mythimna separata [8]) | mortality at 200 mg/kg (Mythimna separata [10])
35%: mortality at 0.2 mg/kg (Mythimna separata [9])
0%: mortality at 0.1 mg/kg (Mythimna separata [11])
